The subject of the test is TPM3-NTRK1-wt IC50 / primary target (e.g. CD74-ROS1-wt) IC50, Ba/F3 cells. The test can be described thus: Cell assay TRKA selectivity (TRKA potency divided by primary target potency). The format is cell-based. The note with it: for TPM3-NTRK1-wt/CD74-ROS1-G2032R: TRKA selectivity ratio: TPM3-NTRK1-wt IC50 / CD74-ROS1-G2032R IC50, Ba/F3 cells; for TPM3-NTRK1-wt/CD74-ROS1-wt: TRKA selectivity ratio: TPM3-NTRK1-wt IC50 / CD74-ROS1-wt IC50, Ba/F3 cells; for TPM3-NTRK1-wt/EML4-ALK-L1196M-G1202R: TRKA selectivity ratio: TPM3-NTRK1-wt IC50 / EML4-ALK-L1196M-G1202R IC50, Ba/F3 cells; for TPM3-NTRK1-wt/EML4-ALK-wt: TRKA selectivity ratio: TPM3-NTRK1-wt IC50 / EML4-ALK-wt IC50, Ba/F3 cells. In outline:
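Ratio of TRKA to primary-target cellular IC50 (e.g. TPM3-NTRK1-wt/CD74-ROS1-wt), grouped into bins A >30, B >10, C ≥1, D <1. Each IC50 came from engineered Ba/F3 fusion lines grown without IL-3, dosed for 72 h and read as CellTiter-Glo luminescence, with a four-parameter logistic fit.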

For `CCn1ncc2c1-c1cnc(N)c(c1)OCc1cc(F)ccc1-n1ncc(F)c1C2` [Example 48, 3-ethyl-9,16-difluoro-20-oxa-3,4,11,12,23-pentaazapentacyclo[19.3.1.0^2,^6.0^8,^12.0^13,^18]pentacosa-1(24),2(6),4,8,10,13,15,17,21(25),22-decaen-22-amine], the TPM3-NTRK1-wt/CD74-ROS1-G2032R result is “A (bin A for very high selectivity, ratio>30-fold)”; the TPM3-NTRK1-wt/CD74-ROS1-wt result is recorded as “A (bin A for very high selectivity, ratio>30-fold)”; the TPM3-NTRK1-wt/EML4-ALK-L1196M-G1202R result is “B (bin B for high selectivity, ratio>10-fold)”; the TPM3-NTRK1-wt/EML4-ALK-wt result is “A (bin A for very high selectivity, ratio>30-fold)”.
Consider `CCn1ncc2c1-c1cnc(N)c(c1)OCc1cc(F)ccc1-c1nn(C)cc1C2` [Example 49, 3-ethyl-16-fluoro-10-methyl-20-oxa-3,4,10,11,23-pentaazapentacyclo[19.3.1.0^2,^6.0^8,^12.0^13,^18]pentacosa-1(24),2(6),4,8,11,13,15,17,21(25),22-decaen-22-amine], for which the TPM3-NTRK1-wt/CD74-ROS1-G2032R entry is given as “A (bin A for very high selectivity, ratio>30-fold)”; the TPM3-NTRK1-wt/CD74-ROS1-wt result is listed as “A (bin A for very high selectivity, ratio>30-fold)”; the TPM3-NTRK1-wt/EML4-ALK-L1196M-G1202R result is on record as “B (bin B for high selectivity, ratio>10-fold)”; the TPM3-NTRK1-wt/EML4-ALK-wt result is on record as “A (bin A for very high selectivity, ratio>30-fold)”.
For `CCc1ncn2c1-c1cnc(N)c(c1)O[C@H](C)c1cc(F)ccc1-c1nn(C)cc1C2` [Example 50, (19R)-3-ethyl-16-fluoro-10,19-dimethyl-20-oxa-4,6,10,11,23-pentaazapentacyclo[19.3.1.0^2,^6.0^8,^12.0^13,^18]pentacosa-1(24),2,4,8,11,13,15,17,21(25),22-decaen-22-amine], the TPM3-NTRK1-wt/CD74-ROS1-G2032R entry is “A (bin A for very high selectivity, ratio>30-fold)”; the TPM3-NTRK1-wt/CD74-ROS1-wt entry is given as “A (bin A for very high selectivity, ratio>30-fold)”; the TPM3-NTRK1-wt/EML4-ALK-L1196M-G1202R result is reported as “B (bin B for high selectivity, ratio>10-fold)”; the TPM3-NTRK1-wt/EML4-ALK-wt result is “A (bin A for very high selectivity, ratio>30-fold)”.
For `CCn1ncc2c1-c1cnc(N)c(c1)O[C@H](C)c1cc(F)ccc1-n1nc(C#N)cc1C2` [Example 51, (19R)-22-amino-3-ethyl-16-fluoro-19-methyl-20-oxa-3,4,11,12,23-pentaazapentacyclo[19.3.1.0^2,^6.0^8,^12.0^13,^18]pentacosa-1(24),2(6),4,8,10,13,15,17,21(25),22-decaene-10-carbonitrile], the TPM3-NTRK1-wt/CD74-ROS1-G2032R entry was “C (bin C for moderate selectivity, ratio≥1)”; the TPM3-NTRK1-wt/CD74-ROS1-wt entry is reported as “C (bin C for moderate selectivity, ratio≥1)”; the TPM3-NTRK1-wt/EML4-ALK-L1196M-G1202R entry is given as “C (bin C for moderate selectivity, ratio≥1)”; the TPM3-NTRK1-wt/EML4-ALK-wt result is given as “D (bin D for low selectivity, ratio<1)”.
For `CCn1ncc2c1-c1cnc(N)c(c1)O[C@H](C)c1cc(F)ccc1-n1nc(C(F)(F)F)cc1C2` [Example 52, (19R)-3-ethyl-16-fluoro-19-methyl-10-(trifluoromethyl)-20-oxa-3,4,11,12,23-pentaazapentacyclo[19.3.1.0^2,^6.0^8,^12.0^13,^18]pentacosa-1(24),2(6),4,8,10,13,15,17,21(25),22-decaen-22-amine], the TPM3-NTRK1-wt/CD74-ROS1-G2032R entry is listed as “A (bin A for very high selectivity, ratio>30-fold)”; the TPM3-NTRK1-wt/CD74-ROS1-wt result was “A (bin A for very high selectivity, ratio>30-fold)”; the TPM3-NTRK1-wt/EML4-ALK-L1196M-G1202R entry was “C (bin C for moderate selectivity, ratio≥1)”; the TPM3-NTRK1-wt/EML4-ALK-wt entry is on record as “B (bin B for high selectivity, ratio>10-fold)”.
For the compound `Cc1nn(CC2CC2)c2c1Cc1cn(C)nc1-c1ccc(F)cc1[C@@H](C)Oc1cc-2cnc1N` [Example 53, (19R)-3-(cyclopropylmethyl)-16-fluoro-5,10,19-trimethyl-20-oxa-3,4,10,11,23-pentaazapentacyclo[19.3.1.0^2,^6.0^8,^12.0^13,^18]pentacosa-1(24),2(6),4,8,11,13,15,17,21(25),22-decaen-22-amine], the TPM3-NTRK1-wt/CD74-ROS1-G2032R result is “A (bin A for very high selectivity, ratio>30-fold)”; the TPM3-NTRK1-wt/CD74-ROS1-wt result is recorded as “A (bin A for very high selectivity, ratio>30-fold)”; the TPM3-NTRK1-wt/EML4-ALK-L1196M-G1202R entry is on record as “A (bin A for very high selectivity, ratio>30-fold)”; the TPM3-NTRK1-wt/EML4-ALK-wt entry is given as “A (bin A for very high selectivity, ratio>30-fold)”.
Turning to `Cc1nn(CC2CC2)c2c1Cc1c(nn(C)c1Cl)-c1ccc(F)cc1[C@@H](C)Oc1cc-2cnc1N` [Example 54, (19R)-9-chloro-3-(cyclopropylmethyl)-16-fluoro-5,10,19-trimethyl-20-oxa-3,4,10,11,23-pentaazapentacyclo[19.3.1.0^2,^6.0^8,^12.0^13,^18]pentacosa-1(24),2(6),4,8,11,13,15,17,21(25),22-decaen-22-amine], the TPM3-NTRK1-wt/CD74-ROS1-G2032R entry is “A (bin A for very high selectivity, ratio>30-fold)”; the TPM3-NTRK1-wt/CD74-ROS1-wt result is “A (bin A for very high selectivity, ratio>30-fold)”; the TPM3-NTRK1-wt/EML4-ALK-L1196M-G1202R entry is recorded as “B (bin B for high selectivity, ratio>10-fold)”; the TPM3-NTRK1-wt/EML4-ALK-wt result is listed as “A (bin A for very high selectivity, ratio>30-fold)”.
For `CCc1nn(C)c2c1-c1cnc(N)c(c1)OCc1cc(F)ccc1-n1nc(C)cc1C2` [Example 55, 3-ethyl-16-fluoro-5,10-dimethyl-20-oxa-4,5,11,12,23-pentaazapentacyclo[19.3.1.0^2,^6.0^8,^12.0^13,^18]pentacosa-1(24),2(6),3,8,10,13,15,17,21(25),22-decaen-22-amine], the TPM3-NTRK1-wt/CD74-ROS1-G2032R entry is listed as “A (bin A for very high selectivity, ratio>30-fold)”; the TPM3-NTRK1-wt/CD74-ROS1-wt result is reported as “A (bin A for very high selectivity, ratio>30-fold)”; the TPM3-NTRK1-wt/EML4-ALK-L1196M-G1202R result is “C (bin C for moderate selectivity, ratio≥1)”; the TPM3-NTRK1-wt/EML4-ALK-wt result is “A (bin A for very high selectivity, ratio>30-fold)”.
With `Cc1cn2c(n1)-c1ccc(F)cc1[C@@H](C)Oc1cc(cnc1N)-c1c(c(C)nn1CC1CC1)C2` [Example 56, (19R)-3-(cyclopropylmethyl)-16-fluoro-5,10,19-trimethyl-20-oxa-3,4,8,11,23-pentaazapentacyclo[19.3.1.0^2,^6.0^8,^12.0^13,^18]pentacosa-1(24),2(6),4,9,11,13,15,17,21(25),22-decaen-22-amine], the TPM3-NTRK1-wt/CD74-ROS1-G2032R result was “D (bin D for low selectivity, ratio<1)”; the TPM3-NTRK1-wt/CD74-ROS1-wt result is recorded as “D (bin D for low selectivity, ratio<1)”; the TPM3-NTRK1-wt/EML4-ALK-L1196M-G1202R result was “D (bin D for low selectivity, ratio<1)”; the TPM3-NTRK1-wt/EML4-ALK-wt entry was “D (bin D for low selectivity, ratio<1)”.
Consider `C[C@H]1Oc2cc(cnc2N)-c2c(C#N)cnn2Cc2ccnn2-c2ccc(F)cc21` [Example 58, (19R)-22-amino-16-fluoro-19-methyl-20-oxa-4,6,11,12,23-pentaazapentacyclo[19.3.1.0^2,^6.0^8,^12.0^13,^18]pentacosa-1(24),2,4,8,10,13,15,17,21(25),22-decaene-3-carbonitrile], for which the TPM3-NTRK1-wt/CD74-ROS1-G2032R result is on record as “A (bin A for very high selectivity, ratio>30-fold)”; the TPM3-NTRK1-wt/CD74-ROS1-wt entry is listed as “A (bin A for very high selectivity, ratio>30-fold)”; the TPM3-NTRK1-wt/EML4-ALK-L1196M-G1202R result is recorded as “B (bin B for high selectivity, ratio>10-fold)”; the TPM3-NTRK1-wt/EML4-ALK-wt result is “A (bin A for very high selectivity, ratio>30-fold)”.

These data come from patent publication US11667649B2, “Heteroaromatic macrocyclic ether chemotherapeutic agents” (Nuvalent, Inc., priority 2020, dated 2023).
